ChEMBL document CHEMBL1125650, “Relationships between the structure of taxol analogues and their antimitotic activity” (J Med Chem, 1991)
≈ marks a conversion by molar mass, not a printed value.

Key:
Sus scrofa = organism: Sus scrofa; experiment: Ratio of the concentration leading to a 50% inhibition of the rate of pig brain microtubule disassembly to that of taxol (0.4 uM) was determined; format: functional
P388 = experiment: The concentration required to 50% inhibition of the P388 leukemic cell proliferation; format: functional, cell-based; settings: Mus musculus
[1] = Ratio of the concentration of compound leading to a 50% inhibition of the rate of pig brain microtubule disassembly to that of compound 13a was determined; format: functional
[2] = Cytotoxicity was measured as ratio of its IC50 value to that of compound 13a; format: functional

SMILES	Ratio (Sus scrofa)	IC50 (P388) [µg/mL]	Ratio [1]	Ratio [2]
CC(=O)O[C@@]12CO[C@@H]1C[C@H](O)[C@@]1(C)C(=O)[C@H](O)C3=C(C)[C@@H](OC(=O)CC(NC(=O)OC(C)(C)C)c4ccccc4)C[C@@](O)([C@@H](OC(=O)c4ccccc4)[C@H]21)C3(C)C (single isomer, unassigned; 10b)	4.1	–	–	–
CC(=O)O[C@H]1C(=O)[C@@]2(C)[C@H]([C@H](OC(=O)c3ccccc3)[C@]3(O)C[C@H](OC(=O)[C@H](O)[C@@H](NC(=O)c4ccccc4)c4ccccc4)C(C)=C1C3(C)C)[C@]1(OC(C)=O)CO[C@@H]1C[C@@H]2O [PACLITAXEL]	–	0.27 (≈ 0.316 µM)	2	–
CC(=O)O[C@@]12CO[C@@H]1C[C@H](O)[C@@]1(C)C(=O)[C@H](O)C3=C(C)[C@@H](OC(=O)C(NC(=O)c4ccccc4)C(O)c4ccccc4)C[C@@](O)([C@@H](OC(=O)c4ccccc4)[C@H]21)C3(C)C (stereo in doubt; 14d)	170	–	–	–
CC(=O)O[C@H]1C(=O)[C@@]2(C)[C@H]([C@H](OC(=O)c3ccccc3)[C@]3(O)C[C@H](OC(=O)[C@@H](O)[C@H](NC(=O)OC(C)(C)C)c4ccccc4)C(C)=C1C3(C)C)[C@]1(OC(C)=O)CO[C@@H]1C[C@@H]2O	30	–	–	–
CC(=O)O[C@H]1C(=O)[C@@]2(C)[C@H]([C@H](OC(=O)c3ccccc3)[C@]3(O)C[C@H](OC(=O)C(O)C(C)O)C(C)=C1C3(C)C)[C@]1(OC(C)=O)CO[C@@H]1C[C@@H]2O (stereo partly specified)	60	–	–	–
CC(=O)O[C@H]1C(=O)[C@@]2(C)[C@H]([C@H](OC(=O)c3ccccc3)[C@]3(O)C[C@H](OC(=O)[C@@H](O)[C@H](NC(=O)c4ccccc4)c4ccccc4)C(C)=C1C3(C)C)[C@]1(OC(C)=O)CO[C@@H]1C[C@@H]2O	4.5	7 (≈ 8.2 µM)	9	54
CC(=O)O[C@@]12CO[C@@H]1C[C@H](O)[C@@]1(C)C(=O)[C@H](O)C3=C(C)[C@@H](OC(=O)C(NS(=O)(=O)c4ccc(C)cc4)C(O)c4ccccc4)C[C@@](O)([C@@H](OC(=O)c4ccccc4)[C@H]21)C3(C)C (stereo partly specified)	15	–	–	–
CC(=O)O[C@@]12CO[C@@H]1C[C@H](O)[C@@]1(C)C(=O)[C@H](O)C3=C(C)[C@@H](OC(=O)C(O)C(NC(=O)c4ccccc4)c4ccccc4)C[C@@](O)([C@@H](OC(=O)c4ccccc4)[C@H]21)C3(C)C (stereo partly specified)	1.3	–	–	–
CC(=O)O[C@@]12CO[C@@H]1C[C@H](O)[C@@]1(C)C(=O)[C@H](O)C3=C(C)[C@@H](OC(=O)/C=C/c4ccccc4)C[C@@](O)([C@@H](OC(=O)c4ccccc4)[C@H]21)C3(C)C	23	–	–	–
CC(=O)O[C@@]12CO[C@@H]1C[C@H](OC(=O)OCC(Cl)(Cl)Cl)[C@@]1(C)C(=O)[C@H](OC(=O)OCC(Cl)(Cl)Cl)C3=C(C)[C@@H](OC(=O)/C=C/c4ccccc4)C[C@@](O)([C@@H](OC(=O)c4ccccc4)[C@H]21)C3(C)C	1000	–	–	–
CC(=O)O[C@H]1C(=O)[C@@]2(C)[C@H]([C@H](OC(=O)c3ccccc3)[C@]3(O)C[C@H](OC(=O)[C@H](O)[C@@H](NC(=O)OC(C)(C)C)c4ccccc4)C(C)=C1C3(C)C)[C@]1(OC(C)=O)CO[C@@H]1C[C@@H]2O	0.5	0.17 (≈ 0.2 µM)	1	1.3
CC(=O)O[C@@]12CO[C@@H]1C[C@H](O)[C@@]1(C)C(=O)[C@H](O)C3=C(C)[C@@H](OC(=O)CC(NC(=O)OC(C)(C)C)c4ccccc4)C[C@@](O)([C@@H](OC(=O)c4ccccc4)[C@H]21)C3(C)C (single isomer, unassigned; 10a)	2.3	–	–	–
CC(=O)O[C@@]12CO[C@@H]1C[C@H](O)[C@@]1(C)C(=O)[C@H](O)C3=C(C)[C@@H](OC(=O)C(O)Cc4ccccc4)C[C@@](O)([C@@H](OC(=O)c4ccccc4)[C@H]21)C3(C)C (stereo partly specified)	4.5	–	–	–
CC(=O)O[C@H]1C(=O)[C@@]2(C)[C@H]([C@H](OC(=O)c3ccccc3)[C@]3(O)C[C@H](OC(=O)C(NC(=O)OC(C)(C)C)C(O)c4ccccc4)C(C)=C1C3(C)C)[C@]1(OC(C)=O)CO[C@@H]1C[C@@H]2O (stereo in doubt; 16c)	10	–	–	–
CC(=O)O[C@@]12CO[C@@H]1C[C@H](O)[C@@]1(C)C(=O)[C@H](O)C3=C(C)[C@@H](OC(=O)[C@@H](O)Cc4ccccc4)C[C@@](O)([C@@H](OC(=O)c4ccccc4)[C@H]21)C3(C)C	3.5	–	–	–
CC(=O)O[C@@]12CO[C@@H]1C[C@H](O)[C@@]1(C)C(=O)[C@H](O)C3=C(C)[C@@H](OC(=O)C(O)C(NC(=O)OC(C)(C)C)c4ccccc4)C[C@@](O)([C@@H](OC(=O)c4ccccc4)[C@H]21)C3(C)C (stereo in doubt; 13f)	4.3	–	–	–
CC(=O)O[C@@]12CO[C@@H]1C[C@H](O)[C@@]1(C)C(=O)[C@H](O)C3=C(C)[C@@H](OC(=O)C(O)C(O)c4ccccc4)C[C@@](O)([C@@H](OC(=O)c4ccccc4)[C@H]21)C3(C)C (stereo partly specified)	3	–	–	–
CC(=O)O[C@@]12CO[C@@H]1C[C@H](O)[C@@]1(C)C(=O)[C@H](O)C3=C(C)[C@@H](OC(=O)[C@H](O)[C@@H](NC(=O)OC(C)(C)C)c4ccccc4)C[C@@](O)([C@@H](OC(=O)c4ccccc4)[C@H]21)C3(C)C.O.O.O [DOCETAXEL]	0.5	0.13	1	1

SMILES	Ratio (Sus scrofa)	IC50 (P388) [µg/mL]	Ratio [1]	Ratio [2]
CC(=O)O[C@H]1C(=O)[C@@]2(C)[C@H]([C@H](OC(=O)c3ccccc3)[C@]3(O)C[C@H](OC(=O)C(NC(=O)OC(C)(C)C)C(O)c4ccccc4)C(C)=C1C3(C)C)[C@]1(OC(C)=O)CO[C@@H]1C[C@@H]2O (stereo in doubt; 16d)	108	–	–	–
CC(=O)O[C@H]1C(=O)[C@@]2(C)[C@H]([C@H](OC(=O)c3ccccc3)[C@]3(O)C[C@H](OC(=O)C(O)C(N)c4ccccc4)C(C)=C1C3(C)C)[C@]1(OC(C)=O)CO[C@@H]1C[C@@H]2O (stereo partly specified)	44	–	–	–
CC(=O)O[C@H]1C(=O)[C@]2(C)[C@@H](OC(=O)CCCC(=O)O)C[C@H]3OC[C@@]3(OC(C)=O)[C@H]2[C@H](OC(=O)c2ccccc2)[C@]2(O)C[C@H](OC(=O)C(O)C(NC(=O)c3ccccc3)c3ccccc3)C(C)=C1C2(C)C (stereo partly specified)	1	–	–	–
CC(=O)O[C@@]12CO[C@@H]1C[C@H](O)[C@@]1(C)C(=O)[C@H](O)C3=C(C)[C@@H](OC(=O)C(NC(=O)c4ccccc4)C(O)c4ccccc4)C[C@@](O)([C@@H](OC(=O)c4ccccc4)[C@H]21)C3(C)C (stereo in doubt; 14c)	10	–	–	–
CC(=O)O[C@@]12CO[C@@H]1C[C@H](O)[C@@]1(C)C(=O)[C@H](O)C3=C(C)[C@@H](OC(=O)[C@@H](O)[C@H](NC(=O)c4ccccc4)c4ccccc4)C[C@@](O)([C@@H](OC(=O)c4ccccc4)[C@H]21)C3(C)C	4	–	–	–
CC(=O)O[C@@]12CO[C@@H]1C[C@H](OC(=O)CN)[C@@]1(C)C(=O)[C@H](OC(=O)CN)C3=C(C)[C@@H](OC(=O)C(O)C(NC(=O)OC(C)(C)C)c4ccccc4)C[C@@](O)([C@@H](OC(=O)c4ccccc4)[C@H]21)C3(C)C (stereo partly specified)	1.2	0.19 (≈ 0.206 µM)	1.4	1.5
CC(=O)O[C@@]12CO[C@@H]1C[C@H](O)[C@@]1(C)C(=O)[C@H](O)C3=C(C)[C@@H](OC(=O)[C@H](NC(=O)OC(C)(C)C)[C@@H](O)c4ccccc4)C[C@@](O)([C@@H](OC(=O)c4ccccc4)[C@H]21)C3(C)C	160	–	–	–
CC(=O)O[C@@]12CO[C@@H]1C[C@H](O)[C@@]1(C)C(=O)[C@H](O)C3=C(C)[C@@H](OC(=O)C(O)C(NC(=O)OC(C)(C)C)c4ccccc4)C[C@@](O)([C@@H](OC(=O)c4ccccc4)[C@H]21)C3(C)C (stereo in doubt; 13e)	1.8	–	–	–
CC(=O)O[C@@]12CO[C@@H]1C[C@H](O)[C@@]1(C)C(=O)[C@H](O)C3=C(C)[C@@H](OC(=O)CCc4ccccc4)C[C@@](O)([C@@H](OC(=O)c4ccccc4)[C@H]21)C3(C)C	17	–	–	–
CC(=O)O[C@@]12CO[C@@H]1C[C@H](O)[C@@]1(C)C(=O)[C@H](O)C3=C(C)[C@@H](OC(=O)[C@@H](O)[C@H](NC(=O)OC(C)(C)C)c4ccccc4)C[C@@](O)([C@@H](OC(=O)c4ccccc4)[C@H]21)C3(C)C	30	> 10	60	>77
CC(=O)O[C@@]12CO[C@@H]1C[C@H](O)[C@@]1(C)C(=O)[C@H](O)C3=C(C)[C@@H](OC(=O)[C@H](O)[C@@H](NS(=O)(=O)c4ccc(C)cc4)c4ccccc4)C[C@@](O)([C@@H](OC(=O)c4ccccc4)[C@H]21)C3(C)C	5	–	–	–
C/C=C/C(=O)O[C@H]1C[C@@]2(O)[C@@H](OC(=O)c3ccccc3)[C@@H]3[C@]4(OC(C)=O)CO[C@@H]4C[C@H](O)[C@@]3(C)C(=O)[C@H](OC(C)=O)C(=C1C)C2(C)C	100	–	–	–
CC(=O)O[C@@]12CO[C@@H]1C[C@H](OC(=O)CCCC(=O)O)[C@@]1(C)C(=O)[C@H](OC(=O)CCCC(=O)O)C3=C(C)[C@@H](OC(=O)C(O)C(NC(=O)OC(C)(C)C)c4ccccc4)C[C@@](O)([C@@H](OC(=O)c4ccccc4)[C@H]21)C3(C)C (stereo partly specified)	2	–	–	–
CC(=O)O[C@@]12CO[C@@H]1C[C@H](O)[C@@]1(C)C(=O)[C@H](O)C3=C(C)[C@@H](OC(=O)C(O)C(N)c4ccccc4)C[C@@](O)([C@@H](OC(=O)c4ccccc4)[C@H]21)C3(C)C (stereo partly specified)	30	–	–	–
CC(=O)O[C@@]12CO[C@@H]1C[C@H](O)[C@@]1(C)C(=O)[C@H](O)C3=C(C)[C@@H](OC(=O)C(O)C(NC(=O)CCCC(=O)O)c4ccccc4)C[C@@](O)([C@@H](OC(=O)c4ccccc4)[C@H]21)C3(C)C (stereo partly specified)	1	–	–	–
CC(=O)O[C@H]1C(=O)[C@@]2(C)[C@H]([C@H](OC(=O)c3ccccc3)[C@]3(O)C[C@H](OC(=O)[C@@H](NC(=O)c4ccccc4)[C@H](O)c4ccccc4)C(C)=C1C3(C)C)[C@]1(OC(C)=O)CO[C@@H]1C[C@@H]2O	110	–	–	–
CC(=O)O[C@@]12CO[C@@H]1C[C@H](O)[C@@]1(C)C(=O)[C@H](O)C3=C(C)[C@@H](OC(=O)[C@H](O)[C@@H](NC(=O)c4ccccc4)c4ccccc4)C[C@@](O)([C@@H](OC(=O)c4ccccc4)[C@H]21)C3(C)C	1.3	–	–	–
